One cell line from the supplement of paper PMC10307832 can be followed below.

Holding throughout (assay): relative viability (nuclei count vs DMSO), 5 days (fraction); higher = more cells survive
Compound in the experiment “GW-2580 + Crizotinib”: COC1=CC=C(C=C1)COC2=C(C=C(C=C2)CC3=CN=C(N=C3N)N)OC [GW-2580] + C[C@@H](Oc1cc(-c2cnn(C3CCNCC3)c2)cnc1N)c1c(Cl)ccc(F)c1Cl [Crizotinib] (partner 1 µM)
The essentials:
(§1)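 Relative viability was taken as the ratio of nuclei in treated wells to nuclei in vehicle wells. Lung cancer cell lines in 1536-well plates received compounds by pin tool one day after seeding, either one drug alone or a fixed anchor-drug dose plus five library-drug doses (not always all listed) in √10 steps. Nuclei were counted on 4× images after 5 days of treatment, and values are medians of duplicate plates.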

Compound in the experiment “GW-2580 + Alpelisib”: COC1=CC=C(C=C1)COC2=C(C=C(C=C2)CC3=CN=C(N=C3N)N)OC [GW-2580] + Cc1nc(NC(=O)N2CCC[C@H]2C(N)=O)sc1-c1ccnc(C(C)(C)C(F)(F)F)c1 [Alpelisib] (partner 2 µM)
The method, boiled down:
as §1

Compound in the experiment “GW-2580 + Phenformin”: COC1=CC=C(C=C1)COC2=C(C=C(C=C2)CC3=CN=C(N=C3N)N)OC [GW-2580] + N=C(N)NC(=N)NCCc1ccccc1 [Phenformin] (partner 250 µM)
The method, boiled down:
as §1

Compound in the experiment “GW-2580 + Dasatinib”: COC1=CC=C(C=C1)COC2=C(C=C(C=C2)CC3=CN=C(N=C3N)N)OC [GW-2580] + Cc1nc(Nc2ncc(C(=O)Nc3c(C)cccc3Cl)s2)cc(N2CCN(CCO)CC2)n1 [Dasatinib] (partner 0.075 µM)
The essentials:
as §1

Compound in the experiment “Fedratinib + Luminespib”: Cc1cnc(Nc2ccc(OCCN3CCCC3)cc2)nc1Nc1cccc(S(=O)(=O)NC(C)(C)C)c1 [Fedratinib] + CCNC(=O)c1noc(-c2cc(C(C)C)c(O)cc2O)c1-c1ccc(CN2CCOCC2)cc1 [Luminespib] (partner 0.01 µM)
The essentials: as §1

Turning to UMC-11, the relative viability with GW-2580 + Crizotinib (first compound 0.08 µM) turned out to be 0.599; with GW-2580 + Crizotinib (first compound 0.8 µM) it was 0.614; with GW-2580 + Crizotinib (first compound 2.53 µM), 0.585; in the experiment with GW-2580 + Crizotinib (first compound 8 µM) it was 0.601; with GW-2580 + Alpelisib (first compound 0.08 µM) it was 0.959; in the experiment with GW-2580 + Alpelisib (first compound 0.8 µM), 1.07. Also, the relative viability amounted to 1.11 in the experiment with GW-2580 + Alpelisib (first compound 2.53 µM); 1.21 in the experiment with GW-2580 + Alpelisib (first compound 8 µM); 0.349 with GW-2580 + Phenformin (first compound 0.08 µM); 0.311 with GW-2580 + Phenformin (first compound 0.8 µM); 0.388 with GW-2580 + Phenformin (first compound 2.53 µM); 0.343 in the experiment with GW-2580 + Phenformin (first compound 8 µM). In addition, the relative viability in the experiment with GW-2580 + Dasatinib (first compound 0.08 µM) worked out at 0.572; in the experiment with GW-2580 + Dasatinib (first compound 0.8 µM) it was 0.508; in the experiment with GW-2580 + Dasatinib (first compound 2.53 µM), 0.441; with GW-2580 + Dasatinib (first compound 8 µM) it was 0.62; with Fedratinib + Luminespib (first compound 0.1 µM), 0.984; with Fedratinib + Luminespib (first compound 0.3162 µM), 0.887. Besides, in the experiment with Fedratinib + Luminespib (first compound 1 µM), the relative viability was determined as 0.758.
